Results as given in patent US11980774B2, “Illumination devices and related methods for phototherapeutic light treatments in the presence of vitamins” (priority 2021, dated 2024).

System: New York variant of SARS-CoV-2 (SARS-CoV-2 NY)
Assay: 425 nm light inhibition of SARS-CoV-2 NY in the presence of riboflavin in artificial saliva, virus titer
Format: cell-based
Conditions: FIG. 2

Cc1cc2nc3c(=O)[nH]c(=O)nc-3n(C[C@H](O)[C@H](O)[C@H](O)CO)c2cc1C [riboflavin]
change in SARS-CoV-2 NY viral load compared with the 0 μM RFN sample (10 μM RFN in artificial saliva, 425 nm light, beginning with doses as low as 3 J/cm^2): notable decreases | viral load of SARS-CoV-2 NY after treatment (10 μM RFN, 425 nm light 15 J/cm^2): below measurement background levels
